Data on 2 compounds can be found in patent EP1914236A1 (Ortho-McNeil Pharmaceutical, Inc., priority 2002, dated 2003).

Molecules are shown by their SMILES.

The target of assay [1] is T1, human B2 bradykinin receptors (Homo sapiens, UniProt P30411).
T1 construct: purchased Receptor Biology, Inc. (Baltimore, MD); host or cells: CHO-K1 cells transfected with the human B2 receptor (membranes)
T1 sequence (P30411 1-391): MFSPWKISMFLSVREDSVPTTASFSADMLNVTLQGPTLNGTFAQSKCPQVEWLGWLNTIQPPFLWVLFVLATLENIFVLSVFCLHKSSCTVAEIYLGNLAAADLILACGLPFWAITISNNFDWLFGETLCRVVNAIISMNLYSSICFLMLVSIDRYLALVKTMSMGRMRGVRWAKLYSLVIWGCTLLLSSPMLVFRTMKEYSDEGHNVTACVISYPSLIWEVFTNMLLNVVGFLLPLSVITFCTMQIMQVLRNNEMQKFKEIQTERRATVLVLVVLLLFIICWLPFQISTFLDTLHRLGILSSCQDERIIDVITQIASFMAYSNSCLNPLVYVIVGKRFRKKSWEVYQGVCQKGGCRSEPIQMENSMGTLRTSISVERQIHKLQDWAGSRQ
The experiment in a line: Bradykinin B2 (BK2) Receptor Binding Assay. The settings on record: membranes of CHO-K1 cells transfected with human B2 bradykinin receptors; ~0.25 nM [3H]NPC17731; 60 min at 25°C. Summed up:
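Membranes came from CHO-K1 cells expressing human B2 receptors; bound radioligand was collected by filtration and washed with cold 10 mM HEPES, pH 7.5. Single concentrations gave % inhibition of specific binding, and concentration ranges gave Ki values.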

The target in assay [2] is T2, CHO-hB2 cell membranes (Homo sapiens, UniProt P30411).
T2 construct: purchased Receptor Biology, Inc. (Baltimore, MD); host or cells: CHO-hB2 cells (membranes)
T2 sequence (P30411 1-391): T1 sequence (P30411 1-391)
In words: [35S]GTPγS Binding Assay in CHO-hB2 Cell Membranes. Format: biochemical. The conditions noted are these: for Functional Activity (% Basal): number in parentheses, bradykinin-stimulated [35S]GTPγS binding, test concentration not given; for Functional Activity: word part of the cell, effect on bradykinin-stimulated [35S]GTPγS binding. A general note: GTPγS is a poorly hydrolysed GTP analogue; its binding reports G protein activation.

A short description of assay [3]: Graded Abdominal Irritant Test (GrAIT). It is filed as in vivo. The settings on record: 30 minutes before kaolin (100 mg/kg intraperitoneally), responses counted for 15 minutes, dose not given. As to the method: The Graded Abdominal Irritant Test (GrAIT) is a modification of the methods described by Koster et al. (Koster R., Anderson M and DeBeer E. J. Fed. Proc. 1959, 18, 412). Prior to the test (30 minutes for oral or subcutaneous administration), each animal was administered a known analgesic, a test compound, or vehicle (0.05N HCl) by one of two routes (oral or subcutaneous).
Kaolin (100 mg/kg) was injected intraperitoneally (using a standard 23G needle) at a volume of 10mL/kg of body weight. Following the administration of the chemical agent, the animals were placed in glass bell jars (approximately 15cm in diameter with wood chips on the bottom). […] A contraction of the abdominal musculature and an elongation of the body, which extends through to the hindlimbs, characterize this response. The responses were counted during the 15-minute time period after the injection of the kaolin. A mechanical counter or a personal computer was used to collect the number of counts per animal, and animals were observed no more than 5 at a time.
The mean number of counts (±SEM) for a group of animals receiving a known analgesic or test compound was compared to the mean for the group of animals which received only vehicle pretreatment (Control group). For each dose, % inhibition of the response was calculated. For each test compound, the EDso value was calculated using a log dose regression analysis program (PharmTools software).

One may read the Ki as a dissociation constant, usually derived from enzyme kinetics or from competition with a known ligand. Broadly, the % Inhibition is the drop in the measured response relative to a control, in per cent. In assay [1], `Cc1ccc2cccc(OCc3c(Cl)ccc(N(C)C(=O)Cc4ccc(C(=O)c5ccc(S(C)(=O)=O)cc5)n4C)c3Cl)c2n1` [Compound 75, N-[2,4-Dichloro-3-(2-methyl-quinolin-8-yloxymethyl)-phenyl]-2-[5-(4-methanesulfonyl-benzoyl)-1-methyl-1 H-pyrrol-2-yl]-N-methyl-acetamide] showed a Ki of 47 nM. In assay [2], the “Functional Activity (% Basal)” value was 73 % Basal and the “Functional Activity” value was “Antagonist”. Besides, the “% Inhibition” value in assay [3] (po) is 50%. For the same compound, the “% Inhibition” value in assay [3] (sc) is given as 93.3%.
Regarding `CCn1c(CC(=O)N(C)c2ccc(Cl)c(COc3cccc4ccc(C)nc34)c2Cl)ccc1C(=O)c1ccc(C#N)cc1` [Compound 8], in assay [1], the affinity, expressed as Ki, was 13 nM. Also, in assay [2], the “Functional Activity (% Basal)” value is listed as 40 % Basal and the “Functional Activity” value is on record as “Antagonist”. Besides, in assay [3] (po), the “% Inhibition” value was -11%. The “% Inhibition” value in assay [3] (sc) was determined as 44%.
